Results taken from patent publication US4873225A, “1-n-(4-amino-3-fluoro-2-hydroxybutyryl)-kanamycins” (Zaidan Hojin Biseibutsu Kagaku Kenkyu Kai, priority 1987, dated 1989).
Converted amounts (≈) assume the structure as drawn. Like-named read-outs stand apart in the source and are kept apart here.

How the values were obtained:
Experiment in all cases: MIC, standard serial dilution method
Assay type in all cases: cell-based
[1] = system: Escherichia coli JR66/W677; conditions: for MIC: Escherichia coli
Experimental: (§1) Antibacterial activities of each of the abovementioned compounds of the general formula (I) according to this invention were determined by measuring their minimum growth inhibitory concentrations (MIC, mcg/ml) against various bacteria in accordance with a standard serial dilution method. The pH condition of the incubation medium where the MIC data were measured was set at pH 7, unless otherwise specifically indicated. For the sake of comparison, the antibacterial spectra of 1-N-{(S)-4-amino-2-hydroxybutyryl}kanamycin A (i.e., amikacin) and 1-N-{(S)-4-amino-2-hydroxybutyryl}-3,4-dideoxykanamycin B (i.e., habekacin) were also measured in the same manner.
(§2) (a) The antibacterial activities of the compounds of this invention are not decreased practically even under pH conditions of pH […] as compared to their antibacterial activities under neutral conditions of pH 7.

[2] = system: Pseudomonas aeruginosa TI 13; conditions: for MIC: Pseudomonas aeruginosa
Experimental: as §1, §2

Escherichia coli K-12 R5 = conditions: K12R5, pH 7
Experimental: as §1
Infectious diseases by Escherichia coli K-12 R5 tend to increase in recent days. The compounds of this invention are therefore important for the therapeutic treatment of bacterial infections.

[3] = system: Corynebacterium bovis 1810; conditions: Corynebacterium bovis, 1810, pH 7
Experimental: as §1

Providencia sp. Pv 16 = system: Providencia sp. Pv 16
Experimental: as §1

[4] = system: Pseudomonas aeruginosa A3
Experimental: as §1

Serratia marcescens = conditions: pH 7, read-out: MIC
Experimental: as §1

Mycobacterium 607 = conditions: Mycobacterium, 607, pH 7
Experimental: as §1

[5] = system: Escherichia coli K-12 LA 290 R55; conditions: K12LA290R55, pH 7
Experimental: as §1

[6] = system: Klebsiella pneumoniae 22 #3038
Experimental: as §1

Escherichia coli JR 225 = conditions: JR225, pH 7
Experimental: as §1

[7] = system: Escherichia coli K-12 ML 1629
Experimental: as §1

Proteus rettgeri GN 311 = conditions: Providencia rettgeri, GN311, pH 7
Experimental: as §1

[8] = system: Staphylococcus aureus 209P
Experimental: as §1

Bacillus subtilis PCI219 = system: Bacillus subtilis PCI219
Experimental: as §1

[9] = system: Staphylococcus aureus Ap01
Experimental: as §1

Escherichia coli K-12 = conditions: K12, pH 7
Experimental: as §1

[10] = system: Pseudomonas aeruginosa GN 315; conditions: GN315, pH 7
Experimental: as §1

[11] = JR66/W677, measured at pH 6, read-out: MIC
[12] = TI13, measured at pH 6, read-out: MIC

Compound | MIC ([1]; JR66/W677, pH 7, read-out: MIC) [µg/mL] | MIC [1, 11] [µg/mL] | MIC ([2]; TI13, pH 7, read-out: MIC) [µg/mL] | MIC [2, 12] [µg/mL] | MIC (Escherichia coli K-12 R5) [µg/mL] | MIC ([3]; read-out: MIC) [µg/mL] | MIC (Providencia sp. Pv 16; SP.PV16, pH 7, read-out: MIC) [µg/mL] | MIC ([4]; A3, pH 7, read-out: MIC) [µg/mL] | MIC (Serratia marcescens) [µg/mL] | MIC (Mycobacterium 607; read-out: MIC) [µg/mL] | MIC [5] [µg/mL] | MIC ([6]; pH 7, read-out: MIC) [µg/mL] | MIC (Escherichia coli JR 225) [µg/mL] | MIC ([7]; K12ML1629, pH 7, read-out: MIC) [µg/mL] | MIC (Proteus rettgeri GN 311; read-out: MIC) [µg/mL] | MIC ([8]; pH 7, read-out: MIC) [µg/mL] | MIC (Bacillus subtilis PCI219; PCI219, pH 7, read-out: MIC) [µg/mL] | MIC ([9]; AP01, pH 7, read-out: MIC) [µg/mL] | MIC (Escherichia coli K-12) [µg/mL] | MIC [10] [µg/mL] | also measured
NC[C@@H]1CC[C@@H](N)[C@@H](O[C@H]2[C@H](F)[C@@H](O[C@H]3O[C@H](CO)[C@@H](O)[C@H](N)[C@H]3O)[C@H](NC(=O)[C@@H](O)[C@H](F)CN)C[C@@H]2N)O1 [Invention Compound No. 10, 1-N-{(2R,3R)-4-Amino-3-fluoro-2-hydroxybutyryl}-5,3',4'-trideoxy-5-fluorokanamycin B] | 0.39 (≈ 0.681 µM) | 1.56 (≈ 2.72 µM) | 0.78 (≈ 1.36 µM) | 3.12 (≈ 5.45 µM) | 3.12 (≈ 5.45 µM) | < 0.2 | 0.78 (≈ 1.36 µM) | < 0.2 | 1.56 (≈ 2.72 µM) | 0.78 (≈ 1.36 µM) | 0.39 (≈ 0.681 µM) | 0.78 (≈ 1.36 µM) | < 0.2 | 0.39 (≈ 0.681 µM) | < 0.2 | 0.39 (≈ 0.681 µM) | 0.2 (≈ 0.349 µM) | 0.78 (≈ 1.36 µM) | 0.2 (≈ 0.349 µM) | 3.12 (≈ 5.45 µM) | –
NC[C@@H](F)[C@H](O)C(=O)N[C@@H]1C[C@H](N)[C@@H](O[C@H]2O[C@H](CN)[C@@H](O)[C@H](O)[C@H]2N)[C@H](F)[C@H]1O[C@H]1O[C@H](CO)[C@@H](O)[C@H](N)[C@H]1O [Invention Compound No. 8, 1-N-{(2R,3R)-4-Amino-3-fluoro-2-hydroxybutyryl}-5-deoxy-5-fluorokanamycin B] | 0.78 (≈ 1.29 µM) | 3.12 (≈ 5.16 µM) | 1.56 (≈ 2.58 µM) | 6.25 (≈ 10.3 µM) | 3.12 (≈ 5.16 µM) | 0.39 (≈ 0.645 µM) | 0.78 (≈ 1.29 µM) | 0.39 (≈ 0.645 µM) | 1.56 (≈ 2.58 µM) | 12.5 (≈ 20.7 µM) | 0.39 (≈ 0.645 µM) | 3.12 (≈ 5.16 µM) | 0.2 (≈ 0.331 µM) | 0.78 (≈ 1.29 µM) | 0.2 (≈ 0.331 µM) | 0.39 (≈ 0.645 µM) | 0.39 (≈ 0.645 µM) | 6.25 (≈ 10.3 µM) | < 0.2 | 6.25 (≈ 10.3 µM) | –
NC[C@@H](F)[C@H](O)C(=O)N[C@@H]1C[C@H](N)[C@@H](O[C@H]2O[C@H](CN)[C@@H](O)C[C@H]2N)[C@H](F)[C@H]1O[C@H]1O[C@H](CO)[C@@H](O)[C@H](N)[C@H]1O [Invention Compound No. 9, 1-N-{(2R,3R)-4-Amino-3-fluoro-2-hydroxybutyryl}-5,3'-dideoxy-5-fluorokanamycin B] | 0.39 (≈ 0.663 µM) | 1.56 (≈ 2.65 µM) | 0.78 (≈ 1.33 µM) | 3.12 (≈ 5.3 µM) | 3.12 (≈ 5.3 µM) | < 0.2 | 0.78 (≈ 1.33 µM) | 0.2 (≈ 0.34 µM) | 3.12 (≈ 5.3 µM) | 1.56 (≈ 2.65 µM) | 0.39 (≈ 0.663 µM) | 0.78 (≈ 1.33 µM) | 0.2 (≈ 0.34 µM) | 0.78 (≈ 1.33 µM) | 0.2 (≈ 0.34 µM) | 0.39 (≈ 0.663 µM) | < 0.2 | 0.78 (≈ 1.33 µM) | < 0.2 | 3.12 (≈ 5.3 µM) | –
NC[C@@H](F)[C@H](O)C(=O)N[C@@H]1C[C@H](N)[C@@H](O[C@H]2O[C@H](CN)[C@@H](O)[C@H](O)[C@H]2O)[C@H](O)[C@H]1O[C@H]1O[C@H](CO)[C@@H](O)[C@H](N)[C@H]1O [Invention Compound No. 1, 1-N-{(2R,3R)-4-Amino-3-fluoro-2-hydroxybutyryl}-kanamycin A] | 1.56 (≈ 2.58 µM) | 6.25 (≈ 10.4 µM) | 3.12 (≈ 5.17 µM) | 3.12 (≈ 5.17 µM) | 12.5 (≈ 20.7 µM) | 0.78 (≈ 1.29 µM) | 1.56 (≈ 2.58 µM) | 0.78 (≈ 1.29 µM) | 3.12 (≈ 5.17 µM) | 1.56 (≈ 2.58 µM) | 1.56 (≈ 2.58 µM) | 3.12 (≈ 5.17 µM) | 0.78 (≈ 1.29 µM) | 1.56 (≈ 2.58 µM) | 0.39 (≈ 0.646 µM) | 1.56 (≈ 2.58 µM) | 0.78 (≈ 1.29 µM) | 6.25 (≈ 10.4 µM) | 0.39 (≈ 0.646 µM) | 25 (≈ 41.4 µM) | –
NCC[C@H](O)C(=O)N[C@@H]1C[C@H](N)[C@@H](O[C@H]2O[C@H](CN)[C@@H](O)[C@H](O)[C@H]2O)[C@H](O)[C@H]1O[C@H]1O[C@H](CO)[C@@H](O)[C@H](N)[C@H]1O [Amikacin, 1-N-{(S)-4-amino-2-hydroxybutyryl}kanamycin A, reference compound] | – | 25 (≈ 42.7 µM) | – | 12.5 (≈ 21.3 µM) | 25 (≈ 42.7 µM) | – | – | – | 6.25 (≈ 10.7 µM) | – | 1.56 (≈ 2.66 µM) | – | 0.78 (≈ 1.33 µM) | – | – | – | – | – | 0.78 (≈ 1.33 µM) | 25 (≈ 42.7 µM) | MIC ([1]; JR66/W677, pH 7): 3.12 µg/mL (≈ 5.33 µM); antibacterial activity (MIC) at pH 6 as compared to pH 7 ([1]; pH 6 vs pH 7): reduced considerably at pH 6; MIC ([2]; TI13, pH 7): 3.12 µg/mL (≈ 5.33 µM); antibacterial activity (MIC) at pH 6 as compared to pH 7 ([2]; pH 6 vs pH 7): reduced considerably at pH 6; MIC [3]: 1.56 µg/mL (≈ 2.66 µM); MIC (Providencia sp. Pv 16; SP.PV16, pH 7): 1.56 µg/mL (≈ 2.66 µM); MIC ([4]; A3, pH 7): 1.56 µg/mL (≈ 2.66 µM); MIC (Mycobacterium 607): 1.56 µg/mL (≈ 2.66 µM); MIC ([6]; pH 7): 3.12 µg/mL (≈ 5.33 µM); MIC ([7]; K12ML1629, pH 7): 1.56 µg/mL (≈ 2.66 µM); MIC (Proteus rettgeri GN 311): 1.56 µg/mL (≈ 2.66 µM); MIC ([8]; pH 7): 1.56 µg/mL (≈ 2.66 µM); MIC (Bacillus subtilis PCI219; PCI219, pH 7): 1.56 µg/mL (≈ 2.66 µM); MIC ([9]; AP01, pH 7): 3.12 µg/mL (≈ 5.33 µM)
NC[C@@H](F)[C@H](O)C(=O)N[C@@H]1C[C@H](N)[C@@H](O[C@H]2O[C@H](CN)[C@@H](O)C[C@H]2F)[C@H](O)[C@H]1O[C@H]1O[C@H](CO)[C@@H](O)[C@H](N)[C@H]1O [Invention Compound No. 3, 1-N-{(2R,3R)-4-Amino-3-fluoro-2-hydroxybutyryl}-2',3'-dideoxy-2'-fluorokanamycin A] | 0.78 (≈ 1.32 µM) | 1.56 (≈ 2.65 µM) | 3.12 (≈ 5.29 µM) | 3.12 (≈ 5.29 µM) | 6.25 (≈ 10.6 µM) | 0.78 (≈ 1.32 µM) | 0.78 (≈ 1.32 µM) | 0.78 (≈ 1.32 µM) | 1.56 (≈ 2.65 µM) | 0.78 (≈ 1.32 µM) | 0.78 (≈ 1.32 µM) | 0.78 (≈ 1.32 µM) | 0.39 (≈ 0.661 µM) | 0.39 (≈ 0.661 µM) | 0.78 (≈ 1.32 µM) | 0.78 (≈ 1.32 µM) | 0.39 (≈ 0.661 µM) | 1.56 (≈ 2.65 µM) | 0.2 (≈ 0.339 µM) | 12.5 (≈ 21.2 µM) | –
NC[C@@H](F)[C@H](O)C(=O)N[C@@H]1C[C@H](N)[C@@H](O[C@H]2O[C@H](CN)[C@@H](O)[C@H](O)[C@H]2N)[C@H](O)[C@H]1O[C@H]1O[C@H](CO)[C@@H](O)[C@H](N)[C@H]1O [Invention Compound No. 5, 1-N-{(2R,3R)-4-Amino-3-fluoro-2-hydroxybutyryl}-kanamycin B] | 0.78 (≈ 1.29 µM) | 3.12 (≈ 5.18 µM) | 1.56 (≈ 2.59 µM) | 3.12 (≈ 5.18 µM) | 3.12 (≈ 5.18 µM) | 0.39 (≈ 0.647 µM) | 1.56 (≈ 2.59 µM) | 0.78 (≈ 1.29 µM) | 6.25 (≈ 10.4 µM) | 12.5 (≈ 20.7 µM) | 0.78 (≈ 1.29 µM) | 3.12 (≈ 5.18 µM) | 0.39 (≈ 0.647 µM) | 0.78 (≈ 1.29 µM) | 0.39 (≈ 0.647 µM) | 0.78 (≈ 1.29 µM) | 1.56 (≈ 2.59 µM) | 6.25 (≈ 10.4 µM) | 0.2 (≈ 0.332 µM) | 6.25 (≈ 10.4 µM) | –
NC[C@@H]1CC[C@@H](N)[C@@H](O[C@H]2[C@H](O)[C@@H](O[C@H]3O[C@H](CO)[C@@H](O)[C@H](N)[C@H]3O)[C@H](NC(=O)[C@@H](O)[C@H](F)CN)C[C@@H]2N)O1 [Invention Compound No. 7, 1-N-{(2R,3R)-4-Amino-3-fluoro-2-hydroxybutyryl}-3',4'-dideoxykanamycin B] | 0.78 (≈ 1.37 µM) | 1.56 (≈ 2.73 µM) | 0.78 (≈ 1.37 µM) | 1.56 (≈ 2.73 µM) | 3.12 (≈ 5.47 µM) | < 0.2 | 0.78 (≈ 1.37 µM) | 0.39 (≈ 0.683 µM) | 3.12 (≈ 5.47 µM) | 0.78 (≈ 1.37 µM) | 0.39 (≈ 0.683 µM) | 0.78 (≈ 1.37 µM) | 0.78 (≈ 1.37 µM) | 0.78 (≈ 1.37 µM) | < 0.2 | < 0.2 | < 0.2 | 0.78 (≈ 1.37 µM) | < 0.2 | 3.12 (≈ 5.47 µM) | –
